Data reported in patent US12605351B2, “Method for producing a composition comprising a 3-O-p-coumaroyl ester of tormentic acid from a plant cell culture, applications thereof as antiparasitic agent for the treatment of trypanosomiasis” (LUXEMBOURG INSTITUTE OF SCIENCE AND TECHNOLOGY, priority 2019, dated 2026).
Like-named read-outs stand apart in the source and are kept apart here.

Assays:
[1] = system: Trypanosoma brucei brucei; assay: In vivo anti-trypanosomal activity in infected mice; set-up: species or system NMRI mice; settings: for survival of infected mice in comparison to the untreated group: 50 mg/kg/d i.p. day 3-7 post-infection, followed to day 19
From the text: (§1) NMRI mice (6-8 weeks of age) obtained from Envigo Laboratories (The Netherlands) were used. All in vivo experiments performed were approved by the Ethical Committee for animals use at the Health Sciences Sector of the Catholic University of Louvain (2017/UCL/MD/017).
Mice were randomly divided into 6 mice per group for 3-O-cis/trans-p-coumaroyltormentic acid (mixture of cis and trans) and ursolic acid, 4 for positive control (Suramine) and 7 for the negative control, and were infested intraperitoneally with 10^4 Trypanosoma brucei brucei. All compounds were solubilized in the vehicle (water-tween 80-ethanol) and administered intraperitoneally. 3-O-cis/trans-p-coumaroyltormentic acid or ursolic acid (UA) were administered at 50 mg/kg at day 3 after infection with the parasite and then every day until day 7 post-infection. Suramine (0.5 mg/kg) was administered while vehicle was used as a negative control. From day 3 post infection, a drop of blood collected each day from mouse-tail was used to count parasitemia.

[2] = In vivo acute toxicity test (highest tolerated dose); set-up: species or system NMRI mice; settings: mice; for acute toxicity: intraperitoneally every 2 hours, 10-15-25-50 mg/kg, monitored 48 h
From the text: as §1
The assessment of the highest tolerated dose was based on a DNDi protocol by Loset J.-R. et al. (V. Drug Screening for Kinetoplastids Diseases. A Training Manual for Screening in Neglected Diseases-DNDi, 2009) and adapted by Beaufay C. et al. (Malar J., 2017, 16, doi:10.1186/s12936-017-2054-y). Briefly, 3-O-cis/trans-p-coumaroyltormentic acid isolated from fractions F-F9 obtained from a callus of Malus domestica Cox cultivar of example 1 above was given intraperitoneally every 2 hours to 2 mice using increasing doses: 10-15-25-50 mg/kg from stock solutions of 10 mg/mL. Mice were controlled for any health problem symptoms or behavioral changes and monitored for weight and hematocrit after each injection and every day during 48 h after administration. Main organs (heart, liver, spleen, lung and kidney) of treated mice were observed and weighed wet during autopsy. Control group received the vehicle, distilled water with 10% of tween 80-ethanol (7:3). The total injected dose was finally recorded and will ensure the non-toxicity of in vivo anti-trypanosomal test.

[3] = system: Trypanosoma brucei brucei bloodstream forms (strain 427); assay: In vitro antitrypanosomal activity on Tbb BSF; format: cell-based; settings: for SI (Selectivity Index): cytotoxicity in WI38 compared to Tbb; for antitrypanosomal activity compared with parent ursolic/oleanolic acid: in words
Method: Antiparasitic activities were evaluated in vitro on Trypanosoma brucei brucei bloodstream forms (strain 427) (Tbb BSF). Tbb BSF were cultured in vitro at 37° C. with 5% CO2 in HMI9 medium containing 10% heat-inactivated fetal bovine serum, […] ([…]) and L-cysteine ([…]).
(§2) In vitro tests were performed as previously described by Hoet S. et al. (Planta Med., 2004, 70, 407-413, doi:10.1055/s-2004-818967). Suramine (a commercial anti-trypanosomal drug) and camptothecin were used as positive controls. Stock solutions of compounds to be tested were prepared at a concentration of 10 mg/mL in DMSO. The solutions were further diluted in medium (described in 1.1) to give 0.1 mg/mL stock solutions. Extracts and compounds were tested in eight serial three-fold dilutions (final concentration range: 50-0.02 mg/L) in 96-well microliter plates. All tests were performed at least in duplicate.

[4] = system: Human normal fibroblast cell line (WI-38); assay: cells; format: cell-based; settings: for cytotoxicity compared with parent oleanolic acid: in words
Method: The cytotoxicity of tested compounds was evaluated in parallel on a Human normal fibroblast cell line (WI-38) cultivated in a humidified atmosphere with 5% CO2 at 37° C. Human normal fibroblast cell line (WI-38) was cultivated in DMEM medium (Life Technologies) containing 4 mM L-glutamine, 1 mM sodium pyruvate supplemented with 10% fetal bovine serum (Sigma) and penicillin-streptomycin (100 UI/mL).
as §2, with “Suramine” for “In vitro tests were performed as previously described by Hoet S. et al. (Planta Med., 2004, 70, 407-413, doi:10.1055/s-2004-818967). Suramine”

[5] = listed as 3-O-p-coumaroyl ester of tormentic acid
[6] = Tbb bloodstream forms strain 427, Table 3
[7] = Tbb bloodstream forms strain 427, Table 3, read-out: Tbb (IC50 μM)
[8] = cytotoxicity, WI-38 human fibroblasts, Table 3
[9] = cytotoxicity, WI-38 human fibroblasts, Table 3, read-out: WI38 (IC50 μM)
[10] = cytotoxicity, WI-38 human fibroblasts, Table 3, read-out: WI38 (IC50 μg/mL)
[11] = Trypanosoma brucei, Tbb bloodstream forms strain 427, Table 3, read-out: Tbb (IC50 μM)
[12] = Trypanosoma brucei, Tbb bloodstream forms strain 427, Table 3, read-out: Tbb (IC50 μg/mL)
[13] = Table 4, same methods as example 3, read-out: Antitrypanosomal (Tbb) IC50 (μM, Mean ± Sd)
[14] = Table 4, same methods as example 3, read-out: Cytotoxicity (WI38) IC50 (μM, Mean ± Sd)

3β-trans/cis-p-coumaroyl-2α,19α-dihydroxy-urs-12-en-28-oic acid [3-O-cis/trans-p-coumaroyltormentic acid]
survival of infected mice in comparison to the untreated group [1, 5]: significant increase | survival of infected mice in comparison to the untreated group ([1]; listed as esters): significantly improved | parasitemia ([1]; day 4 post-infection, 50 mg/kg/day intraperitoneally, 10^4 Tbb/mouse): significant decrease | survival increase ([1]; day 12 post-infection, 50 mg/kg i.p. day 3-7): 33.3% | total cumulative highest tolerated dose ([2]; intraperitoneal, repeated injections): 100 mg/kg | acute toxicity [2]: no acute toxic symptom | acute toxicity [2, 5]: no acute toxicity | Tbb (IC50 μg/mL) [3, 6]: 0.48 ± 0.36 µg/mL | IC50 [3, 7]: 0.75 ± 0.57 µM | anti-trypanosomal activity, times higher than that of tormentic acid ([3]; in vitro, versus tormentic acid): 10 times | WI38 (IC50 μg/mL) [4, 8]: 28.43 ± 0.79 µg/mL | IC50 [4, 9]: 44.8 ± 1.25 µM

CC[C@@]1(O)C(=O)OCc2c1cc1n(c2=O)Cc2cc3ccccc3nc2-1 [Camptothecin]
IC50 [4, 9]: 0.12 ± 0.03 µM | IC50 [4, 10]: 0.04 ± 0.01 µg/mL

C[C@H]1[C@H](C)CC[C@]2(C(=O)O)CC[C@]3(C)C(=CC[C@@H]4[C@@]5(C)C[C@@H](O)[C@H](O)C(C)(C)[C@@H]5CC[C@]43C)[C@H]12 [Corosolic Acid]
IC50 [3, 11]: 7.3 ± 0.59 µM | IC50 [3, 12]: 3.45 ± 0.23 µg/mL | SI (Selectivity Index) [3]: 2.7 | IC50 [4, 9]: 19.8 ± 5.22 µM | IC50 [4, 10]: 9.34 ± 2.47 µg/mL

C[C@H]1[C@H](C)CC[C@]2(C(=O)O)CC[C@]3(C)C(=CC[C@@H]4[C@@]5(C)CC[C@H](OC(=O)CCc6ccccc6)C(C)(C)C5CC[C@]43C)[C@H]12 (some centres unmarked) [Derivative (II-1), 3-O-hydrocinnamic ursolic acid]
IC50 [3, 13]: 2.22 ± 0.66 µM | IC50 [4]: 142 ± 3.45 µM

C[C@H]1[C@H](C)CC[C@]2(C(=O)O)CC[C@]3(C)C(=CC[C@@H]4[C@@]5(C)CC[C@H](OC(=O)/C=C/c6ccccc6)C(C)(C)C5CC[C@]43C)[C@H]12 (some centres unmarked) [Derivative (II-2), 3-O-cinnamic ursolic acid]
IC50 [3, 13]: 68.2 ± 2.15 µM

C[C@H]1[C@H](C)CC[C@]2(C(=O)O)CC[C@]3(C)C(=CC[C@@H]4[C@@]5(C)CC[C@H](OC(=O)CCc6ccc(F)cc6)C(C)(C)C5CC[C@]43C)[C@H]12 (some centres unmarked) [Derivative (II-3), 3-O-parafluorophenylpropionic ursolic acid]
IC50 [3, 13]: 2.45 ± 0.3 µM | IC50 [4]: > 165 µM

C[C@H]1[C@H](C)CC[C@]2(C(=O)O)CC[C@]3(C)C(=CC[C@@H]4[C@@]5(C)CC[C@H](OC(=O)CCc6cccc(F)c6)C(C)(C)C5CC[C@]43C)[C@H]12 (some centres unmarked) [Derivative (II-4), 3-O-metafluorophenylpropionic ursolic acid]
IC50 [3, 13]: 2.67 ± 0.83 µM | IC50 [4]: > 165 µM

C[C@H]1[C@H](C)CC[C@]2(C(=O)O)CC[C@]3(C)C(=CC[C@@H]4[C@@]5(C)CC[C@H](OC(=O)CCc6ccccc6F)C(C)(C)C5CC[C@]43C)[C@H]12 (some centres unmarked) [Derivative (II-5), 3-O-orthofluorophenylpropionic ursolic acid]
IC50 [3, 13]: 1.66 ± 0.38 µM | IC50 [4]: > 132 µM

CC1(C)CC[C@]2(C(=O)O)CC[C@]3(C)C(=CC[C@@H]4[C@@]5(C)CC[C@H](OC(=O)CCc6ccccc6)C(C)(C)C5CC[C@]43C)[C@@H]2C1 (some centres unmarked) [Derivative (II-6), 3-O-hydrocinnamic oleanolic acid]
IC50 [3, 13]: 2.59 ± 0.87 µM | antitrypanosomal activity compared with parent ursolic/oleanolic acid [3]: significantly increased activity | IC50 [4, 14]: 23.5 ± 6.56 µM | cytotoxicity compared with parent oleanolic acid [4]: significantly increased

CC1(C)CC[C@]2(C(=O)O)CC[C@]3(C)C(=CC[C@@H]4[C@@]5(C)CC[C@H](OC(=O)/C=C/c6ccccc6)C(C)(C)C5CC[C@]43C)[C@@H]2C1 (some centres unmarked) [Derivative (II-7), 3-O-cinnamic oleanolic acid]
IC50 [3, 13]: 6.31 ± 0.96 µM | IC50 [4, 14]: 22.3 ± 1.88 µM

CC1(C)CC[C@]2(C(=O)O)CC[C@]3(C)C(=CC[C@@H]4[C@@]5(C)CC[C@H](OC(=O)CCc6ccc(F)cc6)C(C)(C)C5CC[C@]43C)[C@@H]2C1 (some centres unmarked) [Derivative (II-8), 3-O-parafluorophenylpropionic oleanolic acid]
IC50 [3, 13]: 2.88 ± 1.11 µM | antitrypanosomal activity compared with parent ursolic/oleanolic acid [3]: significantly increased activity | IC50 [4, 14]: 16.3 ± 3.26 µM | cytotoxicity compared with parent oleanolic acid [4]: significantly increased

CC1(C)CC[C@]2(C(=O)O)CC[C@]3(C)C(=CC[C@@H]4[C@@]5(C)CC[C@H](OC(=O)CCc6cccc(F)c6)C(C)(C)C5CC[C@]43C)[C@@H]2C1 (some centres unmarked) [Derivative (II-9), 3-O-metafluorophenylpropionic oleanolic acid]
IC50 [3, 13]: 1.72 ± 0.07 µM | antitrypanosomal activity compared with parent ursolic/oleanolic acid [3]: significantly increased activity | IC50 [4, 14]: 20.7 ± 2.25 µM | cytotoxicity compared with parent oleanolic acid [4]: significantly increased

CC1(C)CC[C@]2(C(=O)O)CC[C@]3(C)C(=CC[C@@H]4[C@@]5(C)CC[C@H](OC(=O)CCc6ccccc6F)C(C)(C)C5CC[C@]43C)[C@@H]2C1 (some centres unmarked) [Derivative (II-10), 3-O-orthofluorophenylpropionic oleanolic acid]
IC50 [3, 13]: 4.63 ± 0.28 µM | IC50 [4, 14]: 18.6 ± 4.47 µM

CC1(C)CC[C@]2(C(=O)O)CC[C@]3(C)C(=CC[C@@H]4[C@@]5(C)C[C@@H](O)[C@H](O)C(C)(C)[C@@H]5CC[C@]43C)[C@@H]2C1 [Maslinic acid]
IC50 ([3]; Trypanosoma brucei, read-out: Tbb (IC50 μM)): 9.41 ± 1.35 µM | IC50 ([3]; Trypanosoma brucei, read-out: Tbb (IC50 μg/mL)): 4.45 ± 0.64 µg/mL | SI (Selectivity Index) [3]: 4.6 | IC50 ([4]; Homo sapiens, WI-38, read-out: WI38 (IC50 μM)): 44.1 ± 8.4 µM | IC50 ([4]; Homo sapiens, WI-38, read-out: WI38 (IC50 μg/mL)): 20.9 ± 3.97 µg/mL

CC1(C)CC[C@]2(C(=O)O)CC[C@]3(C)C(=CC[C@@H]4[C@@]5(C)CC[C@H](O)C(C)(C)[C@@H]5CC[C@]43C)[C@@H]2C1 [Oleanolic acid]
IC50 [3, 11]: 5.83 ± 0.7 µM | IC50 [3, 12]: 2.66 ± 0.32 µg/mL | SI (Selectivity Index) [3]: 10.9 | IC50 [4, 9]: 63.3 ± 0.74 µM | IC50 [4, 10]: 28.9 ± 0.34 µg/mL

Cc1ccc(C(=O)Nc2ccc(S(=O)(=O)O)c3cc(S(=O)(=O)O)cc(S(=O)(=O)O)c23)cc1NC(=O)c1cccc(NC(=O)Nc2cccc(C(=O)Nc3cc(C(=O)Nc4ccc(S(=O)(=O)O)c5cc(S(=O)(=O)O)cc(S(=O)(=O)O)c45)ccc3C)c2)c1 [Suramine]
survival till the end of the experiment ([1]; end of experiment day 19 post-infection): survive during all the experimental period | IC50 [3, 11]: 0.038 ± 0.008 µM | IC50 [3, 12]: 0.05 ± 0.01 µg/mL

C[C@@H]1CC[C@]2(C(=O)O)CC[C@]3(C)C(=CC[C@@H]4[C@@]5(C)C[C@@H](O)[C@H](O)C(C)(C)[C@@H]5CC[C@]43C)[C@@H]2[C@]1(C)O [Tormentic acid]
Tbb (IC50 μg/mL) [3, 6]: 7.49 ± 0.33 µg/mL | IC50 [3, 7]: 15.3 ± 0.67 µM | WI38 (IC50 μg/mL) [4, 8]: 26.48 ± 0.33 µg/mL | IC50 [4, 9]: 54.2 ± 0.67 µM

Annurcoic acid
Tbb (IC50 μg/mL) [3, 6]: 27.39 ± 2.24 µg/mL | IC50 [3, 7]: 56.3 ± 4.6 µM | WI38 (IC50 μg/mL) [4, 8]: 70.17 ± 6.82 µg/mL | IC50 [4, 9]: 144 ± 14 µM
